In one series the test system is Thromboxane A2 synthesis. The series is described as follows: Thromboxane A2 synthesis inhibiting activity test in citric acid-treated human whole blood. It is filed as cell-based. The conditions noted are these: inhibitor 50 μM, collagen-stimulated. Here is the method: Measurement was done as follows according to the method of Rolf W. Hartmann et al. (Arch. Pharm. Pharm. Med. Chem., 329, 251, 1996). To 0.5 ml of citric acid-treated human whole blood were added 10 μl of an ethanol/K-Na-phosphate buffer solution (pH 7.4) containing a test compound, and the admixture was preincubated at 37° C. for 10 minutes. Dazoxybene hydrochloride (100 μM) was added to the blanks. Next, 50 μl of a collagen solution (final collagen concentration: 53.6 μg/ml) were added and incubation was continued at 37° C. for 10 minutes. The reaction was stopped by adding 0.4 ml of a 20% trichloroacetic acid solution in 0.6 M hydrochloric acid, and the admixture was centrifuged at 4400× g for 10 minutes. The resulting supernatant (0.5 ml) was fractionated and added to 0.5 ml of a 0.53% thiobarbituric acid solution (solvent: K-Na-phosphate buffer (pH 7.4)), and the admixture was heated for 70 minutes and then allowed to stand at room temperature for 30 minutes. This sample was measured by a fluorophotometer (excitation wave length: 533 nm, measurement wave length: 550 nm). Control samples without test compounds were tested in the same manner. The inhibiting activity (%) was calculated from the measurements using formula 1.
Enzyme source: Citric acid-treated human whole blood
Inhibitor concentration: 50 μM (inhibiting activity (%) was calculated)
Substrate concentration: 25 μM (progesterone)
On to `COc1ccc2c(c1)CCC(Cc1ccncc1)=C2C` [Example 21], for which at 50 µM the inhibition was 43%.
Molecule `COc1cccc2c1CCC(Cc1ccncc1)=C2C` [Example 20] returned an inhibition at 50 µM of 60%.
The same measure, in the same setting: the same measure for `CC1=C(Cc2ccncc2)CCc2ccccc21` [Example 19]: 25%.

The target of a further series is T1, Aromatase (Homo sapiens, UniProt P11511).
T1 construct: Aromatase was prepared from the microsome fraction of human placenta tissue; from tissue; host or cells: human placenta (microsome fraction)
T1 sequence (P11511 1-503): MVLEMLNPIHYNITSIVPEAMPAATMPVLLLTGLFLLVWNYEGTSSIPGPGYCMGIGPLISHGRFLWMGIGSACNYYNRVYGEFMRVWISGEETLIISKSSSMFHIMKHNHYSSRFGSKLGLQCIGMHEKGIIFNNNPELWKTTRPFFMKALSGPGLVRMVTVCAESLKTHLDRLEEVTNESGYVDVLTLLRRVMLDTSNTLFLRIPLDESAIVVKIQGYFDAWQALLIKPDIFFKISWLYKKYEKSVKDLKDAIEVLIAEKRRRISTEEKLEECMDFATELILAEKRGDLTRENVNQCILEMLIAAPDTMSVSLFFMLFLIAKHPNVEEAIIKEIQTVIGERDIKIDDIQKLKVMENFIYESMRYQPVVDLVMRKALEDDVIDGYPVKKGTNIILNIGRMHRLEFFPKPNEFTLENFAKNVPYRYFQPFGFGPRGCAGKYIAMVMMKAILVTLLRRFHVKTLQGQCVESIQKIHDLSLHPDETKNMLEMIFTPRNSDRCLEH
Briefly: Aromatase inhibiting activity test, human placenta microsomes. It is filed as biochemical. The conditions noted are these: inhibitor 25 μM, testosterone 2.5 μM, NADPH 250 μM. As to the method: Measurement was done according to the method of Rolf W. Hartmann and Christine Batzl (J. Med. Chem., 29, 8, 1368, 1986).
Aromatase was prepared from the microsome fraction of human placenta tissue according to the method of Thompson and Siiteri (J. Biol. Chem., 249, 5346, 1974). Microsomes obtained were suspended in a phosphate buffer solution (0.05 M, pH 7.4) and stored at −30° C.
Enzyme activity was evaluated by measuring the amount of ^3H2O produced by [1β, 2β-^3H] testosterone during the reaction according to the methods of Foster A. B. et al. (Foster A. B. et al., J. Med. Chem., 26, 50, 1983) and Graves P. E. and Salhanick H. A. (Endocrinology, 105, 52, 1979) as follows. To a test tube containing 0.225 μCi of [1β, 2β-^3H]testosterone were added 5 μM unlabeled testosterone, 2 mM NADPH, 20 mM glucose-6-phosphate, 1EU of glucose-6-phosphate dehydrogenase, and a test compound (0-250 μM) dissolved in phosphate buffer (0.05 M, pH 7.4). The test compound was dissolved in ethanol and diluted with the phosphate buffer. The final ethanol concentration in a reaction solution of the control and the test compound was 2%. This test tube was preincubated in a water bath at 30° C. for 5 minutes. Next, 0.5 mg of the microsome enzyme was added to start the reaction. The total volume of the reaction solution was 0.5 ml. Water phase portions (100 μl) were taken 0, 7, 14, and 21 minutes after the start of the reaction and added to 200 μl of cold 1 mM HgCl2. To this were added 200 μl of a 2% dextran-treated activatd charcoal (DCC) suspension. The admixture was shaken for 20 minutes and then centrifuged at 1500× g for 5 minutes to isolate the steroid adsorbed on DCC. The amount of the produced ^3H2O in the fractionated supernatant was counted by a liquid scintillation counter. Control samples with no test compound were tested in the same manner. The inhibiting activity (%) was calculated from the measurement using calculation formula 1.
Enzyme source: Human placenta microsomes
Inhibitor concentration: 25 μM (inhibiting activity (%) was calculated)
Substrate concentration: 2.5 μM (testosterone)
NADPH concentration: 250 μM
With `COc1ccc2c(c1)CCC(Cc1cccnc1)=C2C` [Example 17], the inhibition at 25 µM came out at 52%.
Still for that read-out and setting: then `CC1=C(Cc2cccnc2)CCc2cc(O)ccc21` [Example 24], with 37%; and `CC1=C(Cc2cccnc2)CCc2c(O)cccc21` [Example 23], with 60%; and `CC1=C(Cc2cccnc2)CCc2ccccc21` [Example 15], with 56%.
On the same count and under the same terms, the same measure for `COc1ccc2c(c1)C(C)=C(Cc1cccnc1)CC2` [Example 18]: 61%; for `COc1cccc2c1CCC(Cc1cccnc1)=C2C` [Example 16]: 50%.

Still in this series, the particulars now being: testosterone 2.5 μM, NADPH 250 μM.
As to `CCC1=C(Cc2ccncc2)CCc2c(OC)cccc21` [Example 37], the midpoint of inhibition, the IC50, lay at 950 nM.
On the same count and under the same terms, then `CCC1=C(Cc2ccncc2)CCc2cc(OC)ccc21` [Example 38], with 790 nM.
Same read-out and setting: then `COc1ccc2c(c1)C=C(Cc1ccncc1)CC2` [Example 43], with 1700 nM; and `COc1ccc2c(c1)CCC(Cc1ccncc1)=C2C` [Example 21], with 650 nM.
Still for that read-out and setting: then `COc1cccc2c1CCC(Cc1ccncc1)=C2C` [Example 20], with 380 nM; and `CC1=C(Cc2ccncc2)CCc2c(O)cccc21` [Example 26], with 700 nM; and `CC1=C(Cc2ccncc2)CCc2cc(O)ccc21` [Example 27], with 1300 nM.
`COc1ccc2c(c1)CCC(Cc1c[nH]cn1)=C2` [Example 46]: the IC50 stood at 1800 nM.
Same read-out and setting: the same measure for `COc1ccc2c(c1)CCC(Cc1ccncc1)=C2` [Example 42]: 790 nM; for `CCOc1ccc2c(c1)C(C)=C(Cc1c[nH]cn1)CC2` [Example 40]: 1200 nM; for `CC1=C(Cc2ccncc2)CCc2ccccc21` [Example 19]: 230 nM.
The same measure, in the same setting: the same measure for `CCCC1=C(Cc2ccncc2)CCc2cc(OC)ccc21` [Example 44]: 860 nM.
Still for that read-out and setting: the same measure for `CC1=C(Cc2ccncc2)CCc2ccc(O)cc21` [Example 28]: 1200 nM; for `CCC1=C(Cc2ccncc2)CCc2ccc(OC)cc21` [Example 39]: 1300 nM; for `Oc1ccc2c(c1)CCC(Cc1ccncc1)=C2` [Example 45]: 3500 nM.
For the molecule `COc1cccc2c1CCC(Cc1ccncc1)=C2` [Example 41], the 50% inhibitory concentration (IC50) came out at 950 nM.
`CC1=C(Cc2cccnc2)CCc2ccc(O)cc21` [Example 25] returned an IC50 of 6400 nM.
Same read-out and setting: then `COc1ccc2c(c1)C(C)=C(Cc1ccncc1)CC2` [Example 22], with 630 nM.

Test system in a further series: not given
Assay: not given
Conditions: not given
`COc1ccc2c(c1)C=C(Cc1c[nH]cn1)CC2` [Example 63] gave a melting point of 155.5 to 156.5 °C.
Same read-out and setting: the same measure for `CCCOc1ccc2c(c1)CCC(=Cc1c[nH]cn1)C2=O` [Example 73]: 156.5 to 158 °C.
Same read-out and setting: the same measure for `CC1=C(Cc2c[nH]cn2)CCc2cc(OCC(C)C)ccc21` [Example 78]: 96 to 97 °C; for `COc1cccc2c1CCC(Cc1c[nH]cn1)=C2.Cl` [Example 62]: 192.5 to 194.5 °C.
The same measure, in the same setting: then `CC(C)COc1ccc2c(c1)CCC(=Cc1c[nH]cn1)C2=O` [Example 76], with 79 to 81.5 °C; and `CCOc1ccc2c(c1)C(C)=C(Cc1c[nH]cn1)CC2.Cl` [Example 72], with 170.5 to 171.5 °C; and `CCOc1ccc2c(c1)CCC(Cc1c[nH]cn1)C2=O` (centres unmarked) [Example 67], with 143.5 to 144.5 °C.
The molecule `CCOc1ccc2c(c1)C(=O)C(Cc1c[nH]cn1)CC2` (centres unmarked) [Example 69] yielded a melting point of 176.5 to 178.5 °C.
Turning to `CC(C)COc1ccc2c(c1)CCC(Cc1c[nH]cn1)C2=O` (centres unmarked) [Example 77], the melting point fell in the range of 114.5 to 115 °C.
Still for that read-out and setting: the same measure for `COc1cccc2c1CCC(Cc1c[nH]cn1)=C2C` [Example 52]: 132.5 to 135 °C.
Still for that read-out and setting: the same measure for `COc1ccc2c(c1)CCC(Cc1c[nH]cn1)=C2c1ccccc1` [Example 58]: 201.5 to 202.5 °C.
For the molecule `CCOc1cccc2c1CCC(Cc1c[nH]cn1)=C2C` [Example 70], the melting point is 133.5 to 136 °C.
Still for that read-out and setting: then `CCC1=C(Cc2c[nH]cn2)CCc2c(OC)cccc21.Cl` [Example 55], with 164 to 166 °C; and `COc1ccc2c(c1)CCC(Cc1c[nH]cn1)=C2Cc1ccccc1` [Example 61], with 122.5 to 123 °C.
Same read-out and setting: then `CCOc1ccc2c(c1)CCC(=Cc1c[nH]cn1)C2=O` [Example 66], with 133.5 to 134.5 °C; and `CCCOc1ccc2c(c1)CCC(Cc1c[nH]cn1)C2=O` (centres unmarked) [Example 74], with 134.5 to 136 °C; and `CCOc1cccc2c1CCC(Cc1c[nH]cn1)C2=O` (centres unmarked) [Example 65], with 132 to 134 °C.
The same measure, in the same setting: the same measure for `CCOc1cccc2c1CCC(=Cc1c[nH]cn1)C2=O` [Example 64]: 122 to 124 °C.
In turn, `COc1ccc2c(c1)C(c1ccccc1)=C(Cc1c[nH]cn1)CC2` [Example 59] returned a melting point of 198.5 to 199.5 °C.
On the same count and under the same terms, then `COc1cccc2c1CCC(Cc1c[nH]cn1)C2=O` (centres unmarked) [Example 51], with 145.5 to 148 °C; and `CCOc1ccc2c(c1)C(=O)C(=Cc1c[nH]cn1)CC2` [Example 68], with 139.5 to 141 °C; and `CCC1=C(Cc2c[nH]cn2)CCc2cc(OC)ccc21` [Example 53], with 138 to 141.5 °C.
The same measure, in the same setting: then `COc1cccc2c1CCC(Cc1c[nH]cn1)=C2c1ccccc1` [Example 60], with 200 to 202 °C; and `CCOc1ccc2c(c1)CCC(Cc1c[nH]cn1)=C2C` [Example 71], with 126 to 127 °C.
Still for that read-out and setting: then `CCCC1=C(Cc2c[nH]cn2)CCc2cc(OC)ccc21` [Example 56], with 123.5 to 124.5 °C; and `CCC1=C(Cc2c[nH]cn2)CCc2ccc(OC)cc21` [Example 54], with 111.5 to 113.5 °C.
The molecule `COc1cccc2c1CCC(=Cc1c[nH]cn1)C2=O` [Example 50] returned a melting point of 194 to 195 °C.
The same measure, in the same setting: then `CCCC1=C(Cc2c[nH]cn2)CCc2c(OC)cccc21` [Example 57], with 174.5 to 175.5 °C; and `CCCOc1ccc2c(c1)CCC(Cc1c[nH]cn1)=C2C` [Example 75], with 91.5 to 92 °C.

In general, inhibition refers to the percentage by which the read-out fell short of the control. Usually IC50 stands for the point on the concentration scale where inhibition reaches its midpoint. A low value points to greater potency in that assay. A word on the melting point: it is the temperature of the solid-liquid transition.

These data come from patent publication US6559157B2, “Dihydronaphthalene compounds” (Daiichi Pharmaceutical Co., Ltd., priority 1997, dated 2003).
